# Target: T1, p70 (NAMPT) (Homo sapiens, UniProt P43490)
# T1 construct: endogenous in cells; host or cells: H2122 lung cancer cells
# Test: binding competition for photo-crosslinking of P7C3-S326 to p70 in H2122 cells
# Settings: 0.3 μM P7C3-S326 plus 5 μM competitor, p70 band intensity, P7C3-S326 alone compared with plus competitor, vehicle 1.0
# Experimental: Cultured cells were co-exposed to P7C3-S326 (0.3 uM) and the individual P7C3 variants (5 uM), exposed to UV light, lysed, clicked to a fluorescent dye and run on SDS gels (FIG. 11).
# P7C3-S326 was diluted to 0.3 μM in culture medium to treat H2122 cells. After incubation at 37° C. for 2 hours, H2122 cells were irradiated for 15 minutes under 306 nm ultraviolet light in a Stratalinker 2400 (Stratagene). Cells were then harvested by dissolving in 1% SDS lysis buffer 50 mM HEPES, pH 8.0, 2 mM MgCl2, 10 mM KCl, 1% SDS, 50 units/ml of Benzonase (Sigma), supplemented with Sigmafast protease inhibitor (Sigma).
# The reaction was incubated at room temperature with constant agitation at 1,000 rpm on a thermomixer (Eppendorf) for 1 hour. Samples were then mixed with SDS sample loading buffer and loaded on an 8% SDS-PAGE gel, separated, and imaged using a Typhoon imager (filter settings: excitation 533 nm, emission 555 nm, and high sensitivity).
# H2122 cells were incubated with the P7C3-S326 (0.3 μM) in the absence or presence of P7C3 analogs for 2 hours following by UV crosslinking. […] The samples were run on SDS-PAGE gels scanned using a Typhoon Imager. The p70 band intensity was analyzed and quantified by Image J, and the relative intensity in each assay was normalized to that of the DMSO control.
# T1 sequence (P43490 whole entry): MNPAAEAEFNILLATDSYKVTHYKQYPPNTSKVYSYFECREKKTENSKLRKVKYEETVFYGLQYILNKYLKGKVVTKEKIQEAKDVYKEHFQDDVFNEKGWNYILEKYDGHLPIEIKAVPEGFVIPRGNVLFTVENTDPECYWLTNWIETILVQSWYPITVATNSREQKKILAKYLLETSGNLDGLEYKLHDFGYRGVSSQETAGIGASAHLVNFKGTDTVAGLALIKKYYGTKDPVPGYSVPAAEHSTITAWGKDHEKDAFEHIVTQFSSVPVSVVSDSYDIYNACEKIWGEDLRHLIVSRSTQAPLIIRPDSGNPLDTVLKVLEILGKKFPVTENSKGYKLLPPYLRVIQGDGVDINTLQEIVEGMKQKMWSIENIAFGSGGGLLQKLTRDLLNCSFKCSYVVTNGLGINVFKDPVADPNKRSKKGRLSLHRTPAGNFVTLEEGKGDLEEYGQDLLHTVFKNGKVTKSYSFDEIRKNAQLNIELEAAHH
row,SMILES,Binding competition
1,[N-]=[N+]=Nc1ccc(NCC(O)Cn2c3ccc(Br)cc3c3cc(Br)ccc32)cc1 (stereo not shown) [S48],3.4
2,O=S(=O)(C[C@@H](O)Cn1c2ccc(Br)cc2c2cc(Br)ccc21)c1ccccc1 [S50],3.8
3,O=S(=O)(C[C@H](O)Cn1c2ccc(Br)cc2c2cc(Br)ccc21)c1ccccc1 [S51],2.4
4,O=S(=O)(CC(O)Cn1c2ccc(Cl)cc2c2cc(Cl)ccc21)c1ccccc1 (stereo not shown) [S52],4.3
5,COc1cccc(NCC(C)(O)Cn2c3ccc(Br)cc3c3cc(Br)ccc32)c1 (stereo not shown) [S54],3.8
6,C=C/C=N\C=C\NCC(O)Cn1c2ccc(Br)cc2c2cc(Br)ccc21 (stereo not shown) [S58],2.5
7,COc1ccc(NCC(F)Cn2c3ccc(Br)cc3c3cc(Br)ccc32)cc1 (stereo not shown) [S60],1.4
8,OC(CNc1ccccc1)Cn1c2ccc(C3CC3)cc2c2cc(C3CC3)ccc21 (stereo not shown) [S62],1.2
9,OC(CNc1ccccc1)Cn1c2ccc(I)cc2c2cc(I)ccc21 (stereo not shown) [S63],1.5
10,COc1cccc(NCC(O)Cn2c3ccc(C#N)cc3c3cc(C#N)ccc32)c1 (stereo not shown) [S65],3.3
11,CN(C)C(=O)COc1ccc(NCC(F)Cn2c3ccc(Br)cc3c3cc(Br)ccc32)cc1 (stereo not shown) [S70],2.5
12,O=C(COc1ccc(NCC(F)Cn2c3ccc(Br)cc3c3cc(Br)ccc32)cc1)NCCO (stereo not shown) [S71],3.1
13,OC(CNc1ccccc1)CN(c1ccc(Br)cc1)c1ccc(Br)cc1 (stereo not shown) [S72],1.4
14,COc1cccc(NCC(O)CN2c3ccc(Br)cc3CCc3cc(Br)ccc32)c1 (stereo not shown) [S76],1.1
15,COc1cccc(SCC(O)Cn2c3ccc(Br)cc3c3cc(Br)ccc32)c1 (stereo not shown) [S77],3.3
16,COc1ccc(SCC(O)Cn2c3ccc(Br)cc3c3cc(Br)ccc32)cc1 (stereo not shown) [S78],2.7
17,COc1cccc(SCC(F)Cn2c3ccc(Br)cc3c3cc(Br)ccc32)c1 (stereo not shown) [S79],1.0
18,COc1ccc(SCC(F)Cn2c3ccc(Br)cc3c3cc(Br)ccc32)cc1 (stereo not shown) [S80],0.9
19,COc1cccc(S(=O)(=O)CC(O)Cn2c3ccc(Br)cc3c3cc(Br)ccc32)c1 (stereo not shown) [S82],2.3
20,COc1ccc(S(=O)(=O)CC(O)Cn2c3ccc(Br)cc3c3cc(Br)ccc32)cc1 (stereo not shown) [S84],1.2
21,"CN(C)CCC=C1c2ccccc2CCc2ccccc21.Cl [S86, Amitriptyline, reference compound]",1.3
22,"CNCCCN1c2ccccc2CCc2ccccc21.Cl [S87, Desipramine, reference compound]",1.2
23,"CNCCC=C1c2ccccc2CCc2ccccc21.Cl [S89, Nortriptyline, reference compound]",1.3

# Tested on: hippocampal neurogenesis (Dentate Gyrus)
# Test: in vivo neurogenesis assay (BrdU+ cells in dentate gyrus)
# Set-up: species or system mice
# Settings: living mice; vehicle (DMSO) 7.3
# From the text: The screen was simple in concept. With help from chemists in the Department of Biochemistry at UTSWMC, we selected 1,000 druglike chemicals from the 250,000 compounds in our high throughput screening center. The compounds were selected to preserve representative chemical diversity of the entire library. They were further selected to enhance the representation of chiral molecules, and to avoid untoward chemical properties such as reactive moieties. The 1,000 molecules were randomly pooled into groups of ten, and each pool was administered directly into the left ventricle of two adult mice. Intracranial delivery was facilitated by stereotactic positioning of a canula fed directly by an Alzet mini-pump containing the mixture of ten chemicals. The drug mixture was administered over a week-long period at concentrations anticipated to deliver mid-nanomolar levels of the ten test compounds. Daily injections of the thymidine analog, bromodeoxyuridine (BrdU), were coadministered in order to monitor the formation of new hippocampal nerve cells. Following compound administration, animals were sacrificed such that brain tissue could be recovered, sectioned and stained with antibodies to BrdU. […]
row,SMILES,Neurogenesis # BrdU+ Cells (X10E06)/mm3 Dentate Gyrus
1,[N-]=[N+]=Nc1ccc(NCC(O)Cn2c3ccc(Br)cc3c3cc(Br)ccc32)cc1 (stereo not shown) [S48],14.5 (X10E06)/mm3
2,O=S(=O)(C[C@@H](O)Cn1c2ccc(Br)cc2c2cc(Br)ccc21)c1ccccc1 [S50],16.2 (X10E06)/mm3
3,O=S(=O)(C[C@H](O)Cn1c2ccc(Br)cc2c2cc(Br)ccc21)c1ccccc1 [S51],13.2 (X10E06)/mm3
4,O=S(=O)(CC(O)Cn1c2ccc(Cl)cc2c2cc(Cl)ccc21)c1ccccc1 (stereo not shown) [S52],10.8 (X10E06)/mm3
5,COc1cccc(NCC(C)(O)Cn2c3ccc(Br)cc3c3cc(Br)ccc32)c1 (stereo not shown) [S54],16.7 (X10E06)/mm3
6,C=C/C=N\C=C\NCC(O)Cn1c2ccc(Br)cc2c2cc(Br)ccc21 (stereo not shown) [S58],7.2 (X10E06)/mm3
7,COc1ccc(NCC(F)Cn2c3ccc(Br)cc3c3cc(Br)ccc32)cc1 (stereo not shown) [S60],12.6 (X10E06)/mm3
8,OC(CNc1ccccc1)Cn1c2ccc(C3CC3)cc2c2cc(C3CC3)ccc21 (stereo not shown) [S62],11.8 (X10E06)/mm3
9,OC(CNc1ccccc1)Cn1c2ccc(I)cc2c2cc(I)ccc21 (stereo not shown) [S63],8.3 (X10E06)/mm3
10,COc1cccc(NCC(O)Cn2c3ccc(C#N)cc3c3cc(C#N)ccc32)c1 (stereo not shown) [S65],12.9 (X10E06)/mm3
11,CN(C)C(=O)COc1ccc(NCC(F)Cn2c3ccc(Br)cc3c3cc(Br)ccc32)cc1 (stereo not shown) [S70],7.4 (X10E06)/mm3
12,O=C(COc1ccc(NCC(F)Cn2c3ccc(Br)cc3c3cc(Br)ccc32)cc1)NCCO (stereo not shown) [S71],7.2 (X10E06)/mm3
13,OC(CNc1ccccc1)CN(c1ccc(Br)cc1)c1ccc(Br)cc1 (stereo not shown) [S72],11.7 (X10E06)/mm3
14,COc1cccc(NCC(O)CN2c3ccc(Br)cc3CCc3cc(Br)ccc32)c1 (stereo not shown) [S76],14.2 (X10E06)/mm3
15,COc1cccc(SCC(O)Cn2c3ccc(Br)cc3c3cc(Br)ccc32)c1 (stereo not shown) [S77],12.0 (X10E06)/mm3
16,COc1ccc(SCC(O)Cn2c3ccc(Br)cc3c3cc(Br)ccc32)cc1 (stereo not shown) [S78],14.1 (X10E06)/mm3
17,COc1cccc(SCC(F)Cn2c3ccc(Br)cc3c3cc(Br)ccc32)c1 (stereo not shown) [S79],13.7 (X10E06)/mm3
18,COc1ccc(SCC(F)Cn2c3ccc(Br)cc3c3cc(Br)ccc32)cc1 (stereo not shown) [S80],13.0 (X10E06)/mm3
19,COc1cccc(S(=O)(=O)CC(O)Cn2c3ccc(Br)cc3c3cc(Br)ccc32)c1 (stereo not shown) [S82],11.8 (X10E06)/mm3
20,COc1ccc(S(=O)(=O)CC(O)Cn2c3ccc(Br)cc3c3cc(Br)ccc32)cc1 (stereo not shown) [S84],12.8 (X10E06)/mm3
21,"CN(C)CCC=C1c2ccccc2CCc2ccccc21.Cl [S86, Amitriptyline, reference compound]",9.7 (X10E06)/mm3
22,"CNCCCN1c2ccccc2CCc2ccccc21.Cl [S87, Desipramine, reference compound]",14.7 (X10E06)/mm3
23,"CNCCC=C1c2ccccc2CCc2ccccc21.Cl [S89, Nortriptyline, reference compound]",8.7 (X10E06)/mm3

# From patent US9243281B2, “Neuroprotective chemicals and methods for identifying and using same” (Board of Regents of The University of Texas System, priority 2013, dated 2016)
